Measurements taken from patent US8426202B2, “Cell culture medium” (Cellca GmbH, priority 2005, dated 2013).

Test system: CHO cell line that expresses an antibody
Assay: Batch experiment with the substances according to the invention (Example 1)
Assay type: cell-based, Chinese hamster
Conditions: batch mode, substance 0.5-1 g/l, basal medium glucose 4.7 g/l, glutamine […]
Description: Cells were stored in the gas phase of liquid nitrogen. One to two ampoules were thawed in nutrient medium preheated to 37° C. and transferred to spinner bottles, shaking flasks or T-bottles. In the first few days of cultivation the medium was changed, depending on the clone.
Depending on the clone, cells were split either every second day or every third day or after two and three days alternately into new medium, i.e. a portion of the cell suspension was removed from culture and a smaller portion of the cell suspension was reused as inoculum for the next culture. This inoculum was made up with fresh prewarmed nutrient medium. Cells were incubated at 37° C. in an incubator with a CO2 atmosphere. An alternative for incubating cells was cultivation in an incubation chamber at 37° C., in this way cells were held in culture for several passages. A passage means a cultivation time of two to three days. At various points of time, cell suspension was taken from strain maintenance and used as inoculum for experiments. The experiments were carried out in various cultivation systems, for example in spinner bottles, T-bottles, shaking flasks, culture tubes or in controlled bioreactors.
Feed took place at regular intervals.

Compound: NC(=O)NCCC[C@H](N)C(=O)O [Citrulline]
- Gln (day 0): 1.53 mM
- Glucose (day 0): 4.69 g/L
- Lactate (day 0): 0 g/L
- NH4 (day 0): 1.22 mM
- Specific Glutamin consumption (Gln/VCD) (day 0): 1.49
- Specific ammonia production (NH4/VCD) (day 0): 1.18
- Specific glucose consumption (Gluc/VCD) (day 0): 4.55
- Specific lactate production (Lac/VCD) (day 0): 0.00
- Total Cell Density TCD (day 0): 1.07 E5/ml
- Viabil. (day 0): 96%
- Viable Cell Density (VCD) (day 0): 1.03 E5/ml
- Gln (day 3): 0.82 mM
- Glucose (day 3): 4.14 g/L
- Lactate (day 3): 0.83 g/L
- NH4 (day 3): 1.87 mM
- Specific Glutamin consumption (Gln/VCD) (day 3): 0.11
- Specific ammonia production (NH4/VCD) (day 3): 0.25
- Specific glucose consumption (Gluc/VCD) (day 3): 0.55
- Specific lactate production (Lac/VCD) (day 3): 0.11
- Total Cell Density TCD (day 3): 7.7 E5/ml
- Viabil. (day 3): 97%
- Viable Cell Density (VCD) (day 3): 7.5 E5/ml
- Gln (day 6): 0.27 mM
- Glucose (day 6): 2.62 g/L
- Lactate (day 6): 1.16 g/L
- NH4 (day 6): 2.66 mM
- Specific Glutamin consumption (Gln/VCD) (day 6): 0.01
- Specific ammonia production (NH4/VCD) (day 6): 0.07
- Specific glucose consumption (Gluc/VCD) (day 6): 0.07
- Specific lactate production (Lac/VCD) (day 6): 0.03
- Total Cell Density TCD (day 6): 39.6 E5/ml
- Viabil. (day 6): 96%
- Viable Cell Density (VCD) (day 6): 37.9 E5/ml
- Gln (day 8): 0.37 mM
- Glucose (day 8): 1.7 g/L
- Lactate (day 8): 1.12 g/L
- NH4 (day 8): 2.86 mM
- Specific Glutamin consumption (Gln/VCD) (day 8): 0.03
- Specific ammonia production (NH4/VCD) (day 8): 0.20
- Specific glucose consumption (Gluc/VCD) (day 8): 0.12
- Specific lactate production (Lac/VCD) (day 8): 0.08
- Total Cell Density TCD (day 8): 17.8 E5/ml
- Viabil. (day 8): 82%
- Viable Cell Density (VCD) (day 8): 14.6 E5/ml
- Gln (day 11): 0.51 mM
- Glucose (day 11): 0.7 g/L
- Lactate (day 11): 1.48 g/L
- NH4 (day 11): 3.26 mM
- Specific Glutamin consumption (Gln/VCD) (day 11): 0.06
- Specific ammonia production (NH4/VCD) (day 11): 0.40
- Specific glucose consumption (Gluc/VCD) (day 11): 0.09
- Specific lactate production (Lac/VCD) (day 11): 0.18
- Total Cell Density TCD (day 11): 21.3 E5/ml
- Viabil. (day 11): 38%
- Viable Cell Density (VCD) (day 11): 8.2 E5/ml
